Assay results published in the NIST ThermoML archive (doi:10.1016/j.jct.2009.11.014).
± gives the expanded uncertainty stated by the source.

Details: Liquid; for mass density: vibrating tube; for viscosity: Stony Brook Scientific falling needle HPHTV-100 viscometer

CCCCn1cc[n+](C)c1.F[B-](F)(F)F [1-butyl-3-methylimidazolium tetrafluoroborate]
Details | mass density [kg/m3] | viscosity [mPa·s]
283.15 K, 100 kPa | 1212.53 ± 1 | –
283.15 K, 2000 kPa | 1213.37 ± 0.99 | –
283.15 K, 4000 kPa | 1214.24 ± 0.99 | –
283.15 K, 6000 kPa | 1215.13 ± 0.99 | –
283.15 K, 8000 kPa | 1216 ± 0.99 | –
283.15 K, 10000 kPa | 1216.89 ± 0.99 | –
283.15 K, 12000 kPa | 1217.77 ± 0.99 | –
283.15 K, 14000 kPa | 1218.63 ± 0.99 | –
283.15 K, 20000 kPa | 1221.2 ± 0.98 | –
283.15 K, 30000 kPa | 1225.42 ± 0.98 | –
283.15 K, 40000 kPa | 1229.49 ± 0.99 | –
283.15 K, 50000 kPa | 1233.46 ± 0.99 | –
283.15 K, 60000 kPa | 1237.32 ± 1 | –
285.05 K, 110 kPa | – | 197.8 ± 21
285.05 K, 14190 kPa | – | 236.6 ± 26
285.15 K, 110 kPa | – | 197.5 ± 21
285.15 K, 660 kPa | – | 197.8 ± 22
285.15 K, 1660 kPa | – | 200.2 ± 22
285.15 K, 2660 kPa | – | 202.7 ± 22
285.15 K, 4070 kPa | – | 206.4 ± 22
285.15 K, 6100 kPa | – | 211 ± 23
285.15 K, 8180 kPa | – | 215.4 ± 24
285.15 K, 10150 kPa | – | 220.7 ± 24
285.15 K, 12050 kPa | – | 226.1 ± 25
288.15 K, 100 kPa | 1208.87 ± 0.99 | –
288.15 K, 2000 kPa | 1209.73 ± 0.99 | –
288.15 K, 4000 kPa | 1210.65 ± 0.99 | –
288.15 K, 6000 kPa | 1211.56 ± 0.99 | –
288.15 K, 8000 kPa | 1212.45 ± 0.99 | –
288.15 K, 10000 kPa | 1213.34 ± 0.99 | –
288.15 K, 12000 kPa | 1214.22 ± 0.99 | –
288.15 K, 14000 kPa | 1215.09 ± 0.99 | –
288.15 K, 20000 kPa | 1217.71 ± 0.99 | –
288.15 K, 30000 kPa | 1221.96 ± 0.99 | –
288.15 K, 40000 kPa | 1226.06 ± 0.99 | –
288.15 K, 50000 kPa | 1230.05 ± 1 | –
288.15 K, 60000 kPa | 1233.94 ± 1 | –
293.15 K, 100 kPa | 1205.25 ± 0.99 | –
293.15 K, 2000 kPa | 1206.11 ± 0.99 | –
293.15 K, 4000 kPa | 1207.04 ± 0.99 | –
293.15 K, 6000 kPa | 1207.96 ± 0.99 | –
293.15 K, 8000 kPa | 1208.85 ± 0.99 | –
293.15 K, 10000 kPa | 1209.74 ± 0.99 | –
293.15 K, 12000 kPa | 1210.69 ± 0.99 | –
293.15 K, 14000 kPa | 1211.59 ± 0.99 | –
293.15 K, 20000 kPa | 1214.19 ± 0.99 | –
293.15 K, 30000 kPa | 1218.46 ± 0.99 | –
293.15 K, 40000 kPa | 1222.59 ± 0.99 | –
293.15 K, 50000 kPa | 1226.61 ± 0.99 | –
293.15 K, 60000 kPa | 1230.53 ± 1 | –
293.85 K, 120 kPa | – | 125.5 ± 14
293.85 K, 710 kPa | – | 126.4 ± 14
293.85 K, 1690 kPa | – | 127.1 ± 14
293.85 K, 2640 kPa | – | 128.5 ± 14
293.85 K, 4150 kPa | – | 130.9 ± 15
293.85 K, 6130 kPa | – | 132.7 ± 15
293.85 K, 8200 kPa | – | 134.9 ± 15
293.85 K, 10200 kPa | – | 137.4 ± 16
293.85 K, 12000 kPa | – | 142.1 ± 16
293.85 K, 12230 kPa | – | 143.2 ± 16
293.85 K, 14330 kPa | – | 146.1 ± 17
293.85 K, 14700 kPa | – | 146 ± 17
298.15 K, 100 kPa | 1201.64 ± 0.98 | –
298.15 K, 2000 kPa | 1202.53 ± 0.98 | –
298.15 K, 4000 kPa | 1203.45 ± 0.98 | –
298.15 K, 6000 kPa | 1204.39 ± 0.98 | –
298.15 K, 8000 kPa | 1205.3 ± 0.98 | –
298.15 K, 10000 kPa | 1206.22 ± 0.98 | –
298.15 K, 12000 kPa | 1207.12 ± 0.99 | –
298.15 K, 14000 kPa | 1208 ± 0.99 | –
298.15 K, 20000 kPa | 1210.64 ± 0.99 | –
298.15 K, 30000 kPa | 1214.97 ± 0.99 | –
298.15 K, 40000 kPa | 1219.15 ± 0.99 | –
298.15 K, 50000 kPa | 1223.24 ± 0.99 | –
298.15 K, 60000 kPa | 1227.21 ± 0.99 | –
303.15 K, 100 kPa | 1198.09 ± 0.98 | –
303.15 K, 120 kPa | – | 78.1 ± 8.7
303.15 K, 770 kPa | – | 80 ± 8.8
303.15 K, 1680 kPa | – | 82.4 ± 9.1
303.15 K, 2000 kPa | 1198.98 ± 0.98 | –
303.15 K, 2700 kPa | – | 83.3 ± 9.2
303.15 K, 4000 kPa | 1199.92 ± 0.98 | –
303.15 K, 4170 kPa | – | 84.4 ± 9.3
303.15 K, 6000 kPa | 1200.85 ± 0.98 | –
303.15 K, 6240 kPa | – | 85.1 ± 9.4
303.15 K, 6290 kPa | – | 85 ± 9.4
303.15 K, 8000 kPa | 1201.78 ± 0.98 | –
303.15 K, 8180 kPa | – | 88.3 ± 9.7
303.15 K, 10000 kPa | 1202.7 ± 0.98 | –
303.15 K, 10200 kPa | – | 89.8 ± 9.9
303.15 K, 12000 kPa | 1203.62 ± 0.98 | –
303.15 K, 12110 kPa | – | 91 ± 9.6
303.15 K, 14000 kPa | 1204.52 ± 0.98 | –
303.15 K, 14200 kPa | – | 92.5 ± 10
303.15 K, 14290 kPa | – | 91.7 ± 10
303.15 K, 20000 kPa | 1207.18 ± 0.98 | –
303.15 K, 30000 kPa | 1211.54 ± 0.98 | –
303.15 K, 40000 kPa | 1215.79 ± 0.98 | –
303.15 K, 50000 kPa | 1219.9 ± 0.99 | –
303.15 K, 60000 kPa | 1223.89 ± 0.99 | –
308.15 K, 100 kPa | 1194.52 ± 0.98 | –
308.15 K, 2000 kPa | 1195.44 ± 0.98 | –
308.15 K, 4000 kPa | 1196.38 ± 0.98 | –
308.15 K, 6000 kPa | 1197.34 ± 0.97 | –
308.15 K, 8000 kPa | 1198.26 ± 0.98 | –
308.15 K, 10000 kPa | 1199.2 ± 0.97 | –
308.15 K, 12000 kPa | 1200.1 ± 0.98 | –
308.15 K, 14000 kPa | 1201.03 ± 1 | –
308.15 K, 20000 kPa | 1203.74 ± 0.97 | –
308.15 K, 30000 kPa | 1208.15 ± 0.97 | –
308.15 K, 40000 kPa | 1212.4 ± 0.98 | –
308.15 K, 50000 kPa | 1216.54 ± 0.98 | –
308.15 K, 60000 kPa | 1220.57 ± 0.98 | –
313.15 K, 100 kPa | 1191.01 ± 0.97 | –
313.15 K, 2000 kPa | 1191.92 ± 0.97 | –
313.15 K, 4000 kPa | 1192.9 ± 0.97 | –
313.15 K, 6000 kPa | 1193.86 ± 0.97 | –
313.15 K, 8000 kPa | 1194.8 ± 0.97 | –
313.15 K, 10000 kPa | 1195.75 ± 0.97 | –
313.15 K, 12000 kPa | 1196.67 ± 0.97 | –
313.15 K, 14000 kPa | 1197.1 ± 1 | –
313.15 K, 20000 kPa | 1200.34 ± 0.97 | –
313.15 K, 30000 kPa | 1204.81 ± 0.97 | –
313.15 K, 40000 kPa | 1209.11 ± 0.97 | –
313.15 K, 50000 kPa | 1213.28 ± 0.97 | –
313.15 K, 60000 kPa | 1217.34 ± 0.97 | –
313.45 K, 14310 kPa | – | 59.4 ± 6.4
313.55 K, 120 kPa | – | 51.2 ± 5.5
313.55 K, 710 kPa | – | 51.7 ± 5.6
313.55 K, 1650 kPa | – | 52.3 ± 5.7
313.55 K, 2690 kPa | – | 52.5 ± 5.7
313.55 K, 4250 kPa | – | 53.4 ± 5.8
313.55 K, 6260 kPa | – | 54.3 ± 5.9
313.55 K, 8200 kPa | – | 54.9 ± 6
313.55 K, 10200 kPa | – | 56.2 ± 6.1
318.15 K, 100 kPa | 1187.48 ± 0.97 | –
318.15 K, 2000 kPa | 1188.43 ± 0.97 | –
318.15 K, 4000 kPa | 1189.42 ± 0.97 | –
318.15 K, 6000 kPa | 1190.39 ± 0.97 | –
318.15 K, 8000 kPa | 1191.39 ± 0.97 | –
318.15 K, 10000 kPa | 1192.31 ± 0.97 | –
318.15 K, 12000 kPa | 1193.27 ± 0.97 | –
318.15 K, 14000 kPa | 1194.22 ± 0.93 | –
318.15 K, 20000 kPa | 1196.98 ± 0.97 | –
318.15 K, 30000 kPa | 1201.46 ± 0.97 | –
318.15 K, 40000 kPa | 1205.83 ± 0.97 | –
318.15 K, 50000 kPa | 1210.05 ± 0.97 | –
318.15 K, 60000 kPa | 1214.15 ± 0.97 | –
323.15 K, 100 kPa | 1184 ± 0.97 | –
323.15 K, 2000 kPa | 1184.97 ± 0.97 | –
323.15 K, 4000 kPa | 1185.97 ± 0.97 | –
323.15 K, 6000 kPa | 1186.94 ± 0.97 | –
323.15 K, 8000 kPa | 1187.91 ± 0.97 | –
323.15 K, 10000 kPa | 1188.88 ± 0.97 | –
323.15 K, 12000 kPa | 1189.84 ± 0.97 | –
323.15 K, 14000 kPa | 1190.78 ± 0.97 | –
323.15 K, 20000 kPa | 1193.6 ± 0.97 | –
323.15 K, 30000 kPa | 1198.15 ± 0.97 | –
323.15 K, 40000 kPa | 1202.55 ± 0.97 | –
323.15 K, 50000 kPa | 1206.8 ± 0.98 | –
323.15 K, 60000 kPa | 1210.94 ± 0.97 | –
324.8 K, 630 kPa | – | 34.5 ± 3.8
324.82 K, 120 kPa | – | 34.3 ± 3.7
324.85 K, 1700 kPa | – | 34.8 ± 3.8
324.85 K, 2590 kPa | – | 35.2 ± 3.8
324.85 K, 4050 kPa | – | 35.3 ± 3.9
324.85 K, 4260 kPa | – | 35.8 ± 3.9
324.85 K, 6160 kPa | – | 36.5 ± 4
324.85 K, 8160 kPa | – | 36.7 ± 4
324.85 K, 10450 kPa | – | 37.5 ± 4.1
324.85 K, 12130 kPa | – | 38.4 ± 4.2
324.85 K, 14150 kPa | – | 39 ± 4.3
